Source: article PMC2810227, “3-O-Methylfunicone, a Selective Inhibitor of Mammalian Y-Family DNA Polymerases from an Australian Sea Salt Fungal Strain” (Marine Drugs, 2009)

How the values were obtained:
fruit fly pol α = target: T1, fruit fly pol α (Drosophila melanogaster, UniProt P26019); assay: DNA polymerase assay, insect pol α; format: biochemical; settings: 100 μM
T1 construct: purified from early embryos of Drosophila melanogaster; from tissue; host or cells: early embryos of Drosophila melanogaster
Description: (§1) Pol α was purified from calf thymus by immuno-affinity column chromatography, as described by Tamai et al.. Recombinant rat pol β was purified from E. coli JMpβ5, as described by Date et al.. The human pol γ catalytic gene was cloned into pFastBac. Histidine-tagged enzyme was expressed using the BAC-TO-BAC HT Baculovirus Expression System according to the supplier’s manual (Life Technologies, MD, USA) and purified using ProBoundresin (Invitrogen Japan, Tokyo, Japan). Human pols δ and ɛ were purified by nuclear fractionation of human peripheral blood cancer cells (Molt-4) using the second subunit of pols δ and ɛ-conjugated affinity column chromatography, respectively. A truncated form of human pol η (residues 1–511) tagged with His6 at its C-terminal was expressed in E. coli cells and purified as described by Kusumoto et al.. A recombinant mouse pol ι tagged with His6 at its C-terminal was expressed and purified by Ni-NTA column chromatography as described elsewhere (Masutani et al., in preparation). […]
(§2) The compounds were dissolved in distilled dimethyl sulfoxide (DMSO) at various concentrations and sonicated for 30 sec. […] Activity without the inhibitor was considered 100%, and the remaining activity at each concentration of the inhibitor was determined relative to this value. […]

human pol η = target: T2, human pol η (Homo sapiens, UniProt Q9Y253); assay: DNA polymerase assay, pol η; format: biochemical
T2 construct: A truncated form of human pol η (residues 1–511); His6 (C); made in house; host or cells: E. coli
Description: as §1, §2

rat pol β = target: T3, rat pol β (Rattus norvegicus, UniProt P06766); assay: DNA polymerase assay, pol β; format: biochemical; settings: 100 μM
T3 construct: made in house; host or cells: E. coli JMpβ5
Description: as §1, §2

[1] = target: T4, Klenow fragment of E. coli pol I (Escherichia coli, UniProt P00582); assay: DNA polymerase assay, Klenow fragment; format: biochemical; settings: 100 μM
T4 construct: the Klenow fragment of pol I from E. coli; purchased Worthington Biochemical Corp. (Freehold, NJ, USA)
Description: as §1, §2

UV-treated HeLa cells = assay: UV-treated clonogenic assay; format: cell-based, human; settings: 10 J/m^2 UV
Procedure: Figure 5. (A) Human cancer cell growth inhibition dose-response curves of 3-O-methyl-funicone (1). Various concentrations (0 to 150 μM) of compound 1 were incubated with human colon carcinoma (HCT116) cells (circle) and human cervix carcinoma (HeLa) cells (square) for 24 h. Rate of cell growth was determined by MTT assay as described in the Experimental section. Data are shown as the means ± SEM of five independent experiments. (B) Clonogenic survival of UV-treated HeLa cells by compound 1. Various concentrations (0 to 100 μM) of compound 1 were incubated with 10 J/m^2 UV-treated (closed circle) or untreated (open circle) HeLa cells. After 7 days, the number of colonies in each treatment group was counted. Values are the means ± SEM of two independent experiments.
For clonogenic assay, 600 cells of HeLa were seeded on 10-cm plates and allowed to grow for 24 h before 10 J/m^2 UV irradiation treatment. The cells were then treated with various concentrations of compound 1 for 24 h. The cells were then washed with PBS and fresh medium was added for an additional 7-day incubation in a humidified 10% CO2 incubator at 37 °C. […] The number of colonies in each treatment group was counted, and the cell survival data were presented as percentage of the colony numbers of treated/untreated cells.

human topoisomerase I = target: T5, human topoisomerase I (Homo sapiens, UniProt P11387); assay: DNA topoisomerase I assay; format: biochemical; settings: 100 μM
T5 construct: Purified human placenta DNA topoisomerases I and II were purchased from TopoGen, Inc; purchased TopoGen, Inc. (Columbus, OH, USA); host or cells: human placenta (tissue-purified)
Description: as §1, with “al..” for “al.. A recombinant mouse pol ι tagged with His6 at its C-terminal was expressed and purified by Ni-NTA column chromatography as described elsewhere (Masutani et al., in preparation).”
The activities of calf primase of pol α, human telomerase, T7 RNA polymerase, mouse IMP dehydrogenase, human DNA topoisomerases I and II, T4 polynucleotide kinase and bovine DNase I were measured in standard assays according to the manufacturer’s specifications, as described by Tamiya-Koizumi et al., Oda et al., Nakayama et al., Mizushina et al., Ishimaru et al., Soltis et al. and Lu et al., respectively.

human pol γ = target: T6, human pol γ (Homo sapiens, UniProt P54098); assay: DNA polymerase assay, pol γ; format: biochemical; settings: 100 μM
T6 construct: His; made in house
Description: as §1, §2

T2 sequence (Q9Y253 1-511): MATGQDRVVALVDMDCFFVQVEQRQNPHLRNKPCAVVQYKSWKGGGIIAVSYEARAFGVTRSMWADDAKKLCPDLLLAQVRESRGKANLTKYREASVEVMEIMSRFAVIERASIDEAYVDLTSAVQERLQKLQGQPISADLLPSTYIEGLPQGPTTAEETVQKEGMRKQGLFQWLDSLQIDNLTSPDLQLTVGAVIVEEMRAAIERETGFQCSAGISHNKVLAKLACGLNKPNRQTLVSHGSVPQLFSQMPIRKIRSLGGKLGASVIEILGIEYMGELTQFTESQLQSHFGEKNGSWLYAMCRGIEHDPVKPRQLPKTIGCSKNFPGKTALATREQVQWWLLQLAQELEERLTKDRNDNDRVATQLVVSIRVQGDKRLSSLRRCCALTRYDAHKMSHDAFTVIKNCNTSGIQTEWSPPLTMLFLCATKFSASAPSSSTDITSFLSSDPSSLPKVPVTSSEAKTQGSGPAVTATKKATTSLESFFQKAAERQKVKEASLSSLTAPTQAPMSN
T5 sequence (P11387 whole entry): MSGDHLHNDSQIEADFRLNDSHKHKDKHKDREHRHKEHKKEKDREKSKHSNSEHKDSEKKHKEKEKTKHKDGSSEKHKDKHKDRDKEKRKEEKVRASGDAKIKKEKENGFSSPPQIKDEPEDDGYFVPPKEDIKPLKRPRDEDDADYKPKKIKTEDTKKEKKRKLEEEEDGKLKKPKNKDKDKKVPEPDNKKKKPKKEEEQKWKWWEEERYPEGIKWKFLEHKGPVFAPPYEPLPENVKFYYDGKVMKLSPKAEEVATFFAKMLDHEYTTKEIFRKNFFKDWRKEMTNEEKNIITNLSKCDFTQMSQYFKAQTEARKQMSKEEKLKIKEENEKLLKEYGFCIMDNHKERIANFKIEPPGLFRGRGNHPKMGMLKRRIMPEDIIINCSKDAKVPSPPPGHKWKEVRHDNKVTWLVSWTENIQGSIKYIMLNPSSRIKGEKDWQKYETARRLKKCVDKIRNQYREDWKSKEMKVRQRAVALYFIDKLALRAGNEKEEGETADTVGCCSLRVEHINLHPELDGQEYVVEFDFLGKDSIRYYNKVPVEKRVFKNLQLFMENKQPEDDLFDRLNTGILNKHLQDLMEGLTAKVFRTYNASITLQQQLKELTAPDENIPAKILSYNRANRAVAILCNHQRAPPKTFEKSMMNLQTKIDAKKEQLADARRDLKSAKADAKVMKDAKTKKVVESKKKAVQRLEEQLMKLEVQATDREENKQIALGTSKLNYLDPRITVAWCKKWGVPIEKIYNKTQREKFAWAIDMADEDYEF
T4 sequence (P00582 324-928): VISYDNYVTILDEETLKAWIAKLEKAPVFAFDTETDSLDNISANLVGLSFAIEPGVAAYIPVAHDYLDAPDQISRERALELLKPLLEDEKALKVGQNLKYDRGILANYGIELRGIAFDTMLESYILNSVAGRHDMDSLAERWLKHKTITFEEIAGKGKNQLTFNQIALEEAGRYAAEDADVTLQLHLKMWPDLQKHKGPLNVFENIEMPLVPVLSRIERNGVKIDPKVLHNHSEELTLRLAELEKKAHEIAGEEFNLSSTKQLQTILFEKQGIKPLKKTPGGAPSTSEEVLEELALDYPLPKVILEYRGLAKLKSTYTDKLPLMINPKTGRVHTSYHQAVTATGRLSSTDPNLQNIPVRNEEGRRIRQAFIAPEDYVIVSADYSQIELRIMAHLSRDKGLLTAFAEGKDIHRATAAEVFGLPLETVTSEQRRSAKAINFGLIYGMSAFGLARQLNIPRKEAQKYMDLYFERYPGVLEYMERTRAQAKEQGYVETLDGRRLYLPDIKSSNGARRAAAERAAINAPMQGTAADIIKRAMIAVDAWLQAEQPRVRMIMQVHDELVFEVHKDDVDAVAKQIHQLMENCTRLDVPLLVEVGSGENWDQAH
T6 sequence (P54098 whole entry): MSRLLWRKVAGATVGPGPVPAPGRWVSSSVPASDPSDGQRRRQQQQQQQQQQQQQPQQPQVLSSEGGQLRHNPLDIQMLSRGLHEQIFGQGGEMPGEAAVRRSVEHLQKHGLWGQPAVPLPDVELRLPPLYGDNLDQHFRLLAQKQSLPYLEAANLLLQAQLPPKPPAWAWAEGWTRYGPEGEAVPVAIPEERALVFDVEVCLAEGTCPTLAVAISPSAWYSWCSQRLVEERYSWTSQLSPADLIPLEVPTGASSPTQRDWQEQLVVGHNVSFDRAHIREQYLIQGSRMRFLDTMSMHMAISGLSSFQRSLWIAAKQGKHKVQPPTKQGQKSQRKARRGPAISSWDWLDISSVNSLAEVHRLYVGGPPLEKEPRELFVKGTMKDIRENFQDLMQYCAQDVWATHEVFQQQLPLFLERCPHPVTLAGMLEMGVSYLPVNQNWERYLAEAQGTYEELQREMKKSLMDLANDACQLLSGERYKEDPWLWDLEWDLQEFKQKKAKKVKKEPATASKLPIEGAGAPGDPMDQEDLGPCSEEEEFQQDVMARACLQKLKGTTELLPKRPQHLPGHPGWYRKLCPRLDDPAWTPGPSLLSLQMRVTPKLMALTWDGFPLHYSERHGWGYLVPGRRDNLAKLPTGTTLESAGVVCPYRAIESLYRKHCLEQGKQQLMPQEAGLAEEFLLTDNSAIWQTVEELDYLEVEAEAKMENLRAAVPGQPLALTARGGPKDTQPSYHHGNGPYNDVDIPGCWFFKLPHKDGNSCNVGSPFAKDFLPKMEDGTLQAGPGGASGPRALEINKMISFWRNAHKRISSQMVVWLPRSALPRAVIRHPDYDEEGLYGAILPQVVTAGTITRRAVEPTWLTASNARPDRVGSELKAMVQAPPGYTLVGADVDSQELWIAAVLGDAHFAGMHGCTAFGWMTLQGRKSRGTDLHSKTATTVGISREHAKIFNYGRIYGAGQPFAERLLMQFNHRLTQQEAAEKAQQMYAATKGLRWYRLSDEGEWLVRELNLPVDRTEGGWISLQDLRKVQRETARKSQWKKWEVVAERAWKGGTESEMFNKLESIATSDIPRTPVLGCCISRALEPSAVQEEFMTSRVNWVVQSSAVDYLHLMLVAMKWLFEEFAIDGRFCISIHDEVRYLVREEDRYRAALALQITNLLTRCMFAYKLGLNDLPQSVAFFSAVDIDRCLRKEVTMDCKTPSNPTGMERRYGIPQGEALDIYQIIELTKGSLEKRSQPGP

## C/C=C/c1occ(C(=O)c2c(OC)cc(OC)cc2C(=O)OC)c(=O)c1OC [compound 1, 3-O-methylfunicone]
Fruit fly pol α
  effect on fruit fly pol α activity: hardly influenced
Human pol η; 100 μM
  effect on pol η activity: selectively inhibit
Human pol η; poly(dA)/oligo(dT)18 and dTTP, 0.05 units enzyme, read-out: 50% inhibition of pol η (IC50)
  IC50: 50.1 µM
Rat pol β
  effect on pol β activity: hardly influenced
[1]
  effect on Klenow fragment of E. coli pol I activity: no effect
UV-treated HeLa cells; 100 μM, HeLa, 7 days
  inhibiting clonogenic survival effect on UV exposed cells versus non-exposed cells: 4.3 fold
UV-treated HeLa cells; 0 to 100 μM
  HeLa cell UV-sensitivity: significantly enhanced
Human topoisomerase I
  effect on human topoisomerase I activity: did not influence
Human pol γ
  effect on pol γ activity: hardly influenced
